Laboratory results: PubChem BioAssay (NCI)
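96-well plates; 48 h exposure; 5 concentrations. Endpoints by linear interpolation between flanking doses. Not reached: highest tested concentration assigned. GI50: concentration for 50% inhibition of growth. TGI is the concentration that stops growth completely.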

Key:
Experiment in all cases: NCI anticancer screen, dose series, 48 h
786-0 renal = test system: 786-0 renal
A498 renal = test system: A498 renal
A549 NSCLC = test system: A549 NSCLC
ACHN renal = test system: ACHN renal
BT-549 breast = test system: BT-549 breast
CAKI-1 renal = test system: CAKI-1 renal
CCRF-CEM leukemia = test system: CCRF-CEM leukemia
COLO 205 colon = test system: COLO 205 colon
DU-145 prostate = test system: DU-145 prostate
EKVX NSCLC = test system: EKVX NSCLC
HCC-2998 colon = test system: HCC-2998 colon
HCT-116 colon = test system: HCT-116 colon
HCT-15 colon = test system: HCT-15 colon
HL-60(TB) leukemia = test system: HL-60(TB) leukemia
HOP-62 NSCLC = test system: HOP-62 NSCLC
HOP-92 NSCLC = test system: HOP-92 NSCLC
HS 578T breast = test system: HS 578T breast
HT29 colon = test system: HT29 colon
IGROV1 ovarian = test system: IGROV1 ovarian
K-562 leukemia = test system: K-562 leukemia
KM12 colon = test system: KM12 colon
LOX IMVI melanoma = test system: LOX IMVI melanoma
M14 melanoma = test system: M14 melanoma
MALME-3M melanoma = test system: MALME-3M melanoma
MCF7 breast = test system: MCF7 breast
MDA-MB-231 breast = test system: MDA-MB-231 breast
MDA-MB-435 = test system: MDA-MB-435
MOLT-4 leukemia = test system: MOLT-4 leukemia
NCI-H226 lung = test system: NCI-H226 lung
NCI-H23 lung = test system: NCI-H23 lung
NCI-H460 lung = test system: NCI-H460 lung
NCI-H522 lung = test system: NCI-H522 lung
NCI/ADR-RES ovarian = test system: NCI/ADR-RES ovarian
OVCAR-3 ovarian = test system: OVCAR-3 ovarian
OVCAR-4 ovarian = test system: OVCAR-4 ovarian
OVCAR-5 ovarian = test system: OVCAR-5 ovarian
OVCAR-8 ovarian = test system: OVCAR-8 ovarian
PC-3 prostate = test system: PC-3 prostate
RPMI-8226 leukemia = test system: RPMI-8226 leukemia
RXF 393 renal = test system: RXF 393 renal
SF-268 CNS = test system: SF-268 CNS
SF-295 CNS = test system: SF-295 CNS
SF-539 CNS = test system: SF-539 CNS
SK-MEL-2 melanoma = test system: SK-MEL-2 melanoma
SK-MEL-28 melanoma = test system: SK-MEL-28 melanoma
SK-MEL-5 melanoma = test system: SK-MEL-5 melanoma
SK-OV-3 ovarian = test system: SK-OV-3 ovarian
SN12C renal = test system: SN12C renal
SNB-19 CNS = test system: SNB-19 CNS
SNB-75 CNS = test system: SNB-75 CNS
SR leukemia = test system: SR leukemia
SW-620 colon = test system: SW-620 colon
T-47D breast = test system: T-47D breast
TK-10 renal = test system: TK-10 renal
U251 CNS = test system: U251 CNS
UACC-257 melanoma = test system: UACC-257 melanoma
UACC-62 melanoma = test system: UACC-62 melanoma
UO-31 renal = test system: UO-31 renal

SMILES: O=C(/C=C\c1cccc([N+](=O)[O-])c1)c1ccccc1
- GI50 (786-0 renal): 4.95 µM
- TGI (786-0 renal): 12.7 µM
- GI50 (A498 renal): 9.05 µM
- TGI (A498 renal): 25.1 µM
- GI50 (A549 NSCLC): 21 µM
- TGI (A549 NSCLC): 68.2 µM
- GI50 (ACHN renal): 1.9 µM
- TGI (ACHN renal): 3.81 µM
- GI50 (BT-549 breast): 2.85 µM
- TGI (BT-549 breast): 12.1 µM
- GI50 (CAKI-1 renal): 2.53 µM
- TGI (CAKI-1 renal): 5.8 µM
- GI50 (CCRF-CEM leukemia): 0.568 µM
- TGI (CCRF-CEM leukemia): > 100 µM
- GI50 (COLO 205 colon): 2.04 µM
- TGI (COLO 205 colon): 4.12 µM
- GI50 (DU-145 prostate): 2.35 µM
- TGI (DU-145 prostate): 5.88 µM
- GI50 (EKVX NSCLC): 13.1 µM
- TGI (EKVX NSCLC): 29.1 µM
- GI50 (HCC-2998 colon): 2.81 µM
- TGI (HCC-2998 colon): 9.74 µM
- GI50 (HCT-116 colon): 1.72 µM
- TGI (HCT-116 colon): 5.07 µM
- GI50 (HCT-15 colon): 2.16 µM
- TGI (HCT-15 colon): 5.95 µM
- GI50 (HL-60(TB) leukemia): 2.91 µM
- TGI (HL-60(TB) leukemia): > 100 µM
- GI50 (HOP-62 NSCLC): 19.5 µM
- TGI (HOP-62 NSCLC): 46.6 µM
- GI50 (HOP-92 NSCLC): 2.04 µM
- TGI (HOP-92 NSCLC): 5.12 µM
- GI50 (HS 578T breast): 5.97 µM
- TGI (HS 578T breast): 61 µM
- GI50 (HT29 colon): 2.77 µM
- TGI (HT29 colon): > 100 µM
- GI50 (IGROV1 ovarian): 2.62 µM
- TGI (IGROV1 ovarian): > 28.6 µM
- GI50 (K-562 leukemia): 2.21 µM
- TGI (K-562 leukemia): > 100 µM
- GI50 (KM12 colon): 2.36 µM
- TGI (KM12 colon): 5.41 µM
- GI50 (LOX IMVI melanoma): 1.76 µM
- TGI (LOX IMVI melanoma): 3.82 µM
- GI50 (M14 melanoma): 3.74 µM
- TGI (M14 melanoma): 14.2 µM
- GI50 (MALME-3M melanoma): 2.07 µM
- TGI (MALME-3M melanoma): 5.01 µM
- GI50 (MCF7 breast): 1.81 µM
- TGI (MCF7 breast): 9.71 µM
- GI50 (MDA-MB-231 breast): 9.72 µM
- TGI (MDA-MB-231 breast): 25.1 µM
- GI50 (MDA-MB-435): 3.53 µM
- TGI (MDA-MB-435): 14.4 µM
- GI50 (MOLT-4 leukemia): 3.19 µM
- TGI (MOLT-4 leukemia): > 100 µM
- GI50 (NCI-H226 lung): 18.7 µM
- TGI (NCI-H226 lung): 45.9 µM
- GI50 (NCI-H23 lung): 6.16 µM
- TGI (NCI-H23 lung): 21.3 µM
- GI50 (NCI-H460 lung): 7.54 µM
- TGI (NCI-H460 lung): 28.5 µM
- GI50 (NCI-H522 lung): 1.46 µM
- TGI (NCI-H522 lung): 3.93 µM
- GI50 (NCI/ADR-RES ovarian): 5.48 µM
- TGI (NCI/ADR-RES ovarian): 30.1 µM
- GI50 (OVCAR-3 ovarian): 1.76 µM
- TGI (OVCAR-3 ovarian): 3.6 µM
- GI50 (OVCAR-4 ovarian): 3.38 µM
- TGI (OVCAR-4 ovarian): 12.6 µM
- GI50 (OVCAR-5 ovarian): 3.92 µM
- TGI (OVCAR-5 ovarian): 18.7 µM
- GI50 (OVCAR-8 ovarian): 3.66 µM
- TGI (OVCAR-8 ovarian): 17 µM
- GI50 (PC-3 prostate): 2.67 µM
- TGI (PC-3 prostate): 11.3 µM
- GI50 (RPMI-8226 leukemia): 1.07 µM
- TGI (RPMI-8226 leukemia): > 100 µM
- GI50 (RXF 393 renal): 2.01 µM
- TGI (RXF 393 renal): 5.15 µM
- GI50 (SF-268 CNS): 5.46 µM
- TGI (SF-268 CNS): 20.5 µM
- GI50 (SF-295 CNS): 7.68 µM
- TGI (SF-295 CNS): 29.5 µM
- GI50 (SF-539 CNS): 3.4 µM
- TGI (SF-539 CNS): 9.81 µM
- GI50 (SK-MEL-2 melanoma): 3.91 µM
- TGI (SK-MEL-2 melanoma): 17.9 µM
- GI50 (SK-MEL-28 melanoma): 2.17 µM
- TGI (SK-MEL-28 melanoma): 4.6 µM
- GI50 (SK-MEL-5 melanoma): 6.97 µM
- TGI (SK-MEL-5 melanoma): 20.2 µM
- GI50 (SK-OV-3 ovarian): 15 µM
- TGI (SK-OV-3 ovarian): 30.4 µM
- GI50 (SN12C renal): 3.71 µM
- TGI (SN12C renal): 14.1 µM
- GI50 (SNB-19 CNS): 6.81 µM
- TGI (SNB-19 CNS): 21 µM
- GI50 (SNB-75 CNS): 9.82 µM
- TGI (SNB-75 CNS): 30.5 µM
- GI50 (SR leukemia): 2.17 µM
- TGI (SR leukemia): > 100 µM
- GI50 (SW-620 colon): 1.81 µM
- TGI (SW-620 colon): 5.82 µM
- GI50 (T-47D breast): 2.33 µM
- TGI (T-47D breast): 6.1 µM
- GI50 (TK-10 renal): 2.05 µM
- TGI (TK-10 renal): 5.32 µM
- GI50 (U251 CNS): 2.01 µM
- TGI (U251 CNS): 4.91 µM
- GI50 (UACC-257 melanoma): 4.85 µM
- TGI (UACC-257 melanoma): 12.4 µM
- GI50 (UACC-62 melanoma): 7.93 µM
- TGI (UACC-62 melanoma): 22 µM
- GI50 (UO-31 renal): 1.79 µM
- TGI (UO-31 renal): 4.11 µM
